Experimental data reported in patent publication EP0054589B1, “Organic phosphoric acid ester derivatives, a process for preparing the same and insecticidal, miticidal or nematocidal compositions containing the same” (priority 1980, dated 1982).
Read-outs that look alike come from different tables or passages of the source.

Legend:
rice stem borer = assay: Insecticidal effect on rice stem borer, 3rd-instar larvae (rice seedling dip); assay type: in vivo, Chilo suppressalis; settings: after 72 hours, 25°C
Procedure: (§1) (A) A wettable powder prepared as described in Formulation Example 5 was diluted with water to a predetermined concentration. Rice seedlings were dipped into the dilute solution and placed in a 60 ml volume cup made of vinyl chloride resin, and 10 3rd-instar larvae of rice stem borer were put in each cup. The cups were capped and maintained at 25°C.
as §1, with “(B) A” for “(A) A”, “Example 7” for “Example 5”

apple leaf miner = assay: Insecticidal effect on apple leaf miner (sprayed apple seedling); assay type: in vivo, Lithocolletis ringoniella; settings: Phyllonorycter ringoniella, 336 h, 500 ppm, fourteen days after spraying
Procedure: (§2) (A) A dilute water suspension of a wettable powder prepared as described in Formulation Example 5 was sufficiently sprayed using a spray-gun on a seedling of an apple tree planted in a bisque flower pot to which plant larvae of apple leaf miner just after hatching were parasitic. Thereafter the pots were placed in a green house. Fourteen days after the spraying, bores made by larvae were broken and percent mortality was assessed for all the leaves of each seedling. Three pots were used for each treatment.
as §2, with “(B)” for “(A)”, “7” for “5”

tobacco cutworm [1] = assay: Long-lasting insecticidal effect on tobacco cutworm (sprayed cabbage plantlet); assay type: in vivo, Prodenia litura; settings: Table 6, concentration 500 (unit not given), mortality after 48 hours; for Percent Mortality After Application 3rd Day: leaves cut on 3rd day; for Percent Mortality After Application 5th Day: leaves cut on 5th day; for Percent Mortality After Application 7th Day: leaves cut on 7th day; for Percent Mortality After Application 10th Day: leaves cut on 10th day
Procedure: (§3) (A) An emulsifiable concentrate prepared as described in Formulation Example 2 was diluted with water to a predetermined concentration and sprayed onto a cabbage plantlet in a flower pot of 15 cm in diameter using a spray-gun sufficiently and the tests plants were placed in a green house. The leaves of the plants were cut off on the 3rd, 5th, 7th, 10th and 15th day and placed in a 60 ml volume cup and 3rd-instar larvae of tobacco cutworm were put in each cup. The cups were kept in an incubator (25°C). After 48 hours, percent mortality was assessed. The tests was replicated 3 times for each compound using 30 insects in each test.
as §3, with “(B) An” for “(A) An”, “Example 3” for “Example 2”, “and 1 5th” for “and 15th”

Beet = assay: Phytotoxicity on various crops; assay type: in vivo; design: key: Symbol — indicates that no toxicity was observed; settings: 500 ppm sprayed; checked visually after 10 days
Procedure: (§4) An emulsifiable concentrate prepared as described in Formulation Example 2 was diluted with water to a concentration of 500 ppm based on the effective ingredient and sprayed sufficiently using a spray-gun onto various test plants. The plants were kept in a green house. After 10 days from the application phytotoxicity was checked visually. The test was replicated 3 times for each compound.

Rice = assay: Phytotoxicity on various crops; assay type: in vivo; design: key: Symbol — indicates that no toxicity was observed; settings: 500 ppm sprayed; checked visually after 10 days
Procedure: as §4

Cotton = assay: Phytotoxicity on various crops; assay type: in vivo; design: key: Symbol — indicates that no toxicity was observed; settings: 500 ppm sprayed; checked visually after 10 days
Procedure: as §4

Kidney Bean = assay: Phytotoxicity on various crops; assay type: in vivo; design: key: Symbol — indicates that no toxicity was observed; settings: 500 ppm sprayed; checked visually after 10 days
Procedure: as §4

Apple = assay: Phytotoxicity on various crops; assay type: in vivo; design: key: Symbol — indicates that no toxicity was observed; settings: 500 ppm sprayed; checked visually after 10 days
Procedure: as §4

Cucumber = assay: Phytotoxicity on various crops; assay type: in vivo; design: key: Symbol — indicates that no toxicity was observed; settings: 500 ppm sprayed; checked visually after 10 days
Procedure: as §4

Tea = assay: Phytotoxicity on various crops; assay type: in vivo; design: key: Symbol — indicates that no toxicity was observed; settings: 500 ppm sprayed; checked visually after 10 days
Procedure: as §4

Tomato = assay: Phytotoxicity on various crops; assay type: in vivo; design: key: Symbol — indicates that no toxicity was observed; settings: 500 ppm sprayed; checked visually after 10 days
Procedure: as §4

egg plant = assay: Phytotoxicity on various crops; assay type: in vivo; design: key: Symbol — indicates that no toxicity was observed; settings: 500 ppm sprayed; checked visually after 10 days
Procedure: as §4

Green Pepper = assay: Phytotoxicity on various crops; assay type: in vivo; design: key: Symbol — indicates that no toxicity was observed; settings: 500 ppm sprayed; checked visually after 10 days
Procedure: as §4

Cabbage = assay: Phytotoxicity on various crops; assay type: in vivo; design: key: Symbol — indicates that no toxicity was observed; settings: 500 ppm sprayed; checked visually after 10 days
Procedure: as §4

diamond back moth = assay: Insecticidal effect on diamond-back moth (cabbage leaf dip); assay type: in vivo, Plutella xylostella; settings: 100 ppm, after 72 hours, 25°C
Procedure: (§5) (A) An emulsifiable concentrate prepared as described in Formulation Example 1 was diluted with water to a predetermined concentration and leaves of a cabbage were dipped into the dilute emulsion for 10 seconds followed by drying in air, and charged in a 60 ml volume cup made of vinyl chloride resin. Then, thirty 3rd-instar larvae of diamond back moth were put in each cup, and the cups were kept at 25°C. After 72 hours, percent mortality was assessed and the test was replicated 3 times for each treatment.
as §5, with “(B) An” for “(A) An”, “Example 4” for “Example 1”

tobacco cutworm [2] = assay: Insecticidal effect on tobacco cutworm (cabbage leaf dip); assay type: in vivo, Prodenia litura; settings: after 48 hours, 25°C
Procedure: (§6) (A) An emulsifiable concentrate prepared as described in Formulation Example 1 was diluted with water to a predetermined concentration and then cabbage leaves were dipped into the dilute solution and dried in air and placed in a 60 ml volume cup made of vinyl chloride resin. 3rd-instar larvae of tobacco cutworm were put in each cup and maintained at 25°C. After 48 hours, percent mortality was assessed. The test was replicated 3 times for each compound using 30 insects in each test.
as §6, with “(B)” for “(A)”, “3” for “1”

smaller tea tortrix = assay: Insecticidal effect on smaller tea tortrix (apple leaf dip); assay type: in vivo; settings: Adoxophyes orana, foliar, read-out: Percent Mortality
Procedure: Leaves of an apple tree were dipped into a dilute water suspension of a wettable powder prepared as described in Formulation Example 5. After drying in air, the leaves were charged in a 60 ml volume cup made of vinyl chloride resin, and […] 3rd-instar larvae of smaller tea tortrix were put in each cup. The cups were capped and kept at 25°C. After 72 hours, the number of the surviving insects and the dead insects were recorded to determine percent mortality. In each treatment, 3 cups and 30 insects were used in total.

[3] = Table 2, 100 ppm, wettable powder as Formulation Example 7
[4] = Table 8, emulsifiable concentrate as Formulation Example 4
[5] = Table 4, 100 ppm, emulsifiable concentrate as Formulation Example 3
[6] = Table 1, 500 ppm, wettable powder as Formulation Example 5
[7] = Table 9, 100 ppm, after 72 hours, 25°C, wettable powder as Formulation Example 5
[8] = Table 3, 500 ppm, emulsifiable concentrate as Formulation Example 1
[9] = Table 1, 100 ppm, wettable powder as Formulation Example 5

| Structure (SMILES) | Percent Mortality (%) (rice stem borer; [3]) | Percent Mortality After Application 3rd Day (tobacco cutworm [1]) [%] | Percent Mortality After Application 5th Day (tobacco cutworm [1]) [%] | Percent Mortality After Application 7th Day (tobacco cutworm [1]) [%] | Percent Mortality After Application 10th Day (tobacco cutworm [1]) [%] | Percent Mortality After Application Immediately after Application (tobacco cutworm [1]) [%] | Phytotoxicity: Beet (Beet) | Phytotoxicity: Rice (Rice) | Phytotoxicity: Cotton (Cotton) | Phytotoxicity: Kidney Bean (Kidney Bean) | Phytotoxicity: Apple (Apple) | Phytotoxicity: Cucumber (Cucumber) | Phytotoxicity: Tea (Tea) | Phytotoxicity: Tomato (Tomato) | Phytotoxicity: Egg Plant (egg plant) | Phytotoxicity: Green Pepper (Green Pepper) | Phytotoxicity: Cabbage (Cabbage) | Percent Mortality (%) (diamond back moth; [4]) | Percent Mortality (%) (tobacco cutworm [2]; [5]) | Percent Mortality (%) (rice stem borer; [6]) | further results |
| --- | --- | --- | --- | --- | --- | --- | --- | --- | --- | --- | --- | --- | --- | --- | --- | --- | --- | --- | --- | --- | --- |
| CCC(C)SP(=O)(OC)Oc1ccc2c(c1)OC(C)(C)C=C2C (stereo not drawn) [Compound No. 24] | 100 | 100 | 93.3 | 60.0 | 23.3 | 100 | — | — | — | — | — | — | — | — | — | — | — | 100 | 100 |  | mortality at 500 ppm (apple leaf miner; Table 11, wettable powder as Formulation Example 7, read-out: Percent Mortality (%)): 100% |
| CCOP(=O)(Oc1ccc2c(c1)OC(C)=CC2(C)C)SC(C)C (stereo not drawn) [compound 14] |  |  |  |  |  |  | — | — | — | — | — | — | — | — | — | — | — |  |  | 100 | mortality at 100 ppm (smaller tea tortrix; [7]): 83.3%; Percent Mortality (%) (tobacco cutworm [2]; [8]): 100% |
| CCCSP(=O)(OCC)Oc1cccc2c1C(C)=CC(C)(C)O2 (stereo not drawn) [Compound No. 22] | 100 | 100 | 100 | 73.3 | 53.3 | 100 | — | — | — | — | — | — | — | — | — | — | — | 100 | 100 | 100 | Percent Mortality (%) (rice stem borer; [9]): 100%; mortality at 100 ppm (smaller tea tortrix; [7]): 100%; Percent Mortality (%) (diamond back moth; Table 7, emulsifiable concentrate as Formulation Example 1): 100%; Percent Mortality (%) (tobacco cutworm [2]; [8]): 100% |
| CCOP(=O)(Oc1ccc2c(c1)OC(CC)=C(C)C2(CC)CC)SC(C)CC (stereo not drawn) [Compound No. 19] | 100 |  |  |  |  |  | — | — | — | — | — | — | — | — | — | — | — |  | 100 | 100 | Percent Mortality (%) (rice stem borer; [9]): 100%; mortality at 500 ppm (apple leaf miner; Table 10, wettable powder as Formulation Example 5, read-out: Percent Morality (%)): 100% |
| CCOP(=S)(OCC)Oc1cc(C)nc(C(C)C)n1 [Diazinon, 0,0-diethyl (O-2-isopropyl-6-methyl-pyrimidin-4-yl)phosphorothioate, reference compound] |  |  |  |  |  |  |  |  |  |  |  |  |  |  |  |  |  |  |  |  | mortality at 100 ppm (smaller tea tortrix; 72 h): 43.3% |
